Activity calls are given as the source filed them.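 The calls were made as follows: active = maximal percent inhibition of the deubiquitinase OTUD3 of at least 30% across the tested doses; inactive = the rest.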
Molecular target: OTU domain-containing protein 3 (Homo sapiens) (UniProt Q5T2D3)
Assay: Validation of screening hits, potency titration, in vitro enzymatic, OTU domain-containing protein 3 DUB inhibitors (AID 1645868)
Details: purified OTUD3, ubiquitin-rhodamine cleavage fluorescence, 2 h

OTU domain-containing protein 3 (Homo sapiens), sequence (Q5T2D3 whole entry, looked up, the tested form may be a part): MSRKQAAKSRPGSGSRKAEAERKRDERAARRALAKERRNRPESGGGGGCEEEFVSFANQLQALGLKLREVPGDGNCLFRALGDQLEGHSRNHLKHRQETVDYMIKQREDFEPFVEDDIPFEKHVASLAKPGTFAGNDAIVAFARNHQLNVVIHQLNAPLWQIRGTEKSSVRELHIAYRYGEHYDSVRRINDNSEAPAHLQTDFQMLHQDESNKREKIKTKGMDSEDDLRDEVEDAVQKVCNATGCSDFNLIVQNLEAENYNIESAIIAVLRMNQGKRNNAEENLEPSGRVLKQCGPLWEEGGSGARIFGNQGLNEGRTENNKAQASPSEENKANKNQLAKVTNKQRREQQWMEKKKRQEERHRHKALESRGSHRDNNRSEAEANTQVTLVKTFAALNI

SMILES	IC50
CC1=C[C@H]2N(c3ccc(C)cc31)[C@H](C(=O)c1cccs1)[C@@H](C(=O)c1ccc(F)cc1)[C@]21C(=O)Nc2ccccc21	> 50 µM (inactive)
COc1ccc(OC)c(-n2c(SCC(=O)N3CCc4ccccc43)nnc2-c2cccc(S(=O)(=O)N(C)C)c2)c1	> 50 µM (inactive)
CN(C)c1ccc(CCN2CCc3nc4cccnc4cc3C2)cc1	> 50 µM (inactive)
COc1ccc(Nc2nc3c(S(=O)(=O)c4ccc(C)cc4)nnn3c3ccsc23)c(OC)c1	40.1 µM
CSc1nccc(-c2ccc(F)cc2)c1C#N	> 50 µM (inactive)
CCCOc1ccc(C(=O)Nc2ccc(S(=O)(=O)Nc3cc(C)nc(C)n3)cc2)cc1	> 50 µM (inactive)
Cc1cc(C(=O)Nc2ccc3c(c2)OCCO3)no1	> 50 µM (inactive)
COc1ccc(CCNC(=O)c2cc3ccccc3s2)cc1OC	> 50 µM (inactive)
Cc1ccc2cc(CNc3ccccc3)c(=O)n(CC(=O)Nc3ccccc3C)c2c1	26 µM
O=C(Nc1nc2c(s1)COCC2)c1cc(-c2ccco2)[nH]n1	> 50 µM (inactive)
CC1CCN(S(=O)(=O)c2ccc3[nH]cc(C(=O)NCc4ccco4)c(=O)c3c2)CC1	> 50 µM (inactive)
Cc1ccc(C(=O)Nc2nc3n(n2)C(c2ccccc2)CC(=O)N3)cc1 (configuration not stated)	28.6 µM
O=C(NC(Cc1ccccc1)c1nc2ccccc2[nH]1)C1CC1 (configuration not stated)	> 50 µM (inactive)
CC1CCc2c(sc3ncnc(NC4CCN(CC(N)=O)CC4)c23)C1 (configuration not stated)	> 50 µM (inactive)
Clc1ccc(C[n+]2cc(-c3ccc(Cl)cc3)n3c2CCC3)cc1	> 50 µM (inactive)
CC(=O)c1oc2nc3c(c(-c4ccc(Cl)cc4)c2c1N)CCc1ccccc1-3	> 50 µM (inactive)
Cc1ccc(Cn2cc(-c3noc(-c4ccc[nH]4)n3)nn2)cc1	19.8 µM
O=C(Cc1cccnc1)Nc1ccc(N2CCN(C3CCCCC3)C2=O)nc1	> 50 µM (inactive)
O=c1c2c(ccn1Cc1cc(F)ccc1F)ccn2Cc1cccnc1	> 50 µM (inactive)
CS(=O)(=O)N1CCc2cc(C(=O)Nc3ccc(Cc4ccncc4)cc3)ccc21	> 50 µM (inactive)
COc1ccccc1-c1nc2c3c(C)c(C)n(-c4ccc(Br)cn4)c3ncn2n1	> 50 µM (inactive)
CC(C)(C)C(=O)C1C2C(=O)N(Cc3ccccc3)C(=O)C2C2c3ccccc3C=CN12 (configuration not stated)	> 50 µM (inactive)
Cc1ccc(/C=C/C(=O)Nc2ccc3c(c2)OCCO3)cc1	> 50 µM (inactive)

SMILES	IC50
CC(C)(C)C(=O)Nc1ccc(C(=O)Nc2cccc(-c3nnc(-c4ccccc4)o3)c2)cc1	16.8 µM
Cc1ccc([N+](=O)[O-])cc1S(=O)(=O)Nc1cc2sc(=O)oc2c2ccccc12	35.9 µM
COc1ccc(CNC(=O)c2ccccc2N2C(=O)N3CCc4c([nH]c5ccccc45)[C@@]3(C)C2=O)cc1	42.1 µM
CCN(C(=O)c1cc2c(s1)-c1ccccc1OC2)c1ccccc1F	> 50 µM (inactive)
COc1ccc(Cn2c(=O)[nH]c3cc(C(=O)NCCCN4CCN(c5cccc(Cl)c5)CC4)ccc3c2=O)cc1	10 µM
O=C(Nc1cccn(Cc2c(Cl)cccc2Cl)c1=O)c1ccccc1[N+](=O)[O-]	> 50 µM (inactive)
COc1cc2cc3c(c(O)c2c(O)c1-c1c(OC)cc2cc4c(c(O)c2c1O)C(=O)OC1CC(C)OC41)C(=O)OC1CC(C)OC31 (configuration not stated)	> 50 µM (inactive)
Cc1ccc(C(=O)Nc2c(C(=O)N3CCN(c4ccccc4)CC3)[nH]c3ccccc23)cc1	> 50 µM (inactive)
O=C(Cn1cnc2c(oc3ccccc32)c1=O)NCc1ccccc1Cl	36.7 µM
Nc1nc(-c2ccc[nH]2)cs1	> 50 µM (inactive)
COc1c(Cl)ccc2c(=O)c3c(O)c4c5c(c3oc12)OCO[C@H]5[C@@H](OC)c1cc2c(c(O)c1-4)C(=O)N(C)[C@H](OC)[C@@H]2O	> 50 µM (inactive)
COC(=O)[C@]1(O)O[C@@]2(C(=O)OC)c3c(oc4cc(C)cc(O)c4c3=O)[C@H]3c4c(oc5cc(C)cc(O)c5c4=O)C[C@H]1[C@H]32	> 50 µM (inactive)
COc1cccc(NC(=O)c2nnn(-c3ccccc3)n2)c1	> 50 µM (inactive)
COc1cccc2sc(N3CCN(c4nc5ccccc5s4)CC3)nc12	> 50 µM (inactive)
COc1ccc(-c2nonc2NC(=O)C(c2ccccc2)c2ccccc2)cc1OC	> 50 µM (inactive)
O=C(/C=C/c1c(F)cccc1Cl)N1CCc2ccccc2C1	> 50 µM (inactive)
COc1cccc2cccc(O)c12	> 50 µM (inactive)
COc1ccc(-c2ocnc2C(=O)Nc2cccc(Cl)c2C)cc1OC	> 50 µM (inactive)
CCCCc1nc2sc3c(SCC(=O)NCc4ccccc4)ncnc3c2c2c1CCC2	> 50 µM (inactive)
O=C(c1ccco1)N1CCC2(CC1)CC1(CO2)Nc2ccccc2-n2cccc21 (configuration not stated)	> 50 µM (inactive)
Cc1cccc(NC(=O)c2noc3c2CCc2sccc2-3)n1	> 50 µM (inactive)
CCOC(=O)c1c(C)oc2nc(CSc3ccccc3)[nH]c(=O)c12	> 50 µM (inactive)
Cc1ccc(Nc2nc(Nc3cccc(F)c3)nc3nccnc23)c(C)c1	> 50 µM (inactive)

SMILES	IC50
CCn1cc2c(n1)c(=O)n(Cc1ccccc1)c(=O)n2CC(=O)Nc1ccc(OC)cc1	12.1 µM
CCc1nc2c(NC(=O)Nc3cccc(C(=O)OC)c3)cccn2n1	> 50 µM (inactive)
Cc1nc(-c2cccc(NC(=O)c3ccccc3Cl)c2)no1	> 50 µM (inactive)
CN(C)c1cccc(C(=O)Nc2cc(-c3cccnc3)no2)c1	35.8 µM
Cc1cccc(C(=O)N2CCc3cc(-c4nc(NC(=O)CNc5ccccc5)sc4C)ccc32)c1	> 50 µM (inactive)
O=C(NCc1cccnc1)c1cnn2c(C(F)(F)F)cc(-c3ccccc3)nc12	> 50 µM (inactive)
CC(=O)c1ccc(NC(=O)c2ccc(N3CCCCS3(=O)=O)cc2Cl)cc1	37 µM
CCOC(=O)c1cnn(-c2ccc(C(=O)Nc3ccc(C)c(Cl)c3)cc2)c1N	> 50 µM (inactive)
CCOC(=O)c1cc2c(ccn2C)n1Cc1cccc2ccccc12	> 50 µM (inactive)
CCCCCC(=O)N1c2ccccc2NC2=C(C(=O)CC(c3ccc(C(C)(C)C)cc3)C2)C1c1ccncc1 (configuration not stated)	19.7 µM
CC(=O)Nc1cccc(NC(=O)COc2cccc3ccc(N4CCCC4)nc23)c1	> 50 µM (inactive)
Cc1cccc(NC(=O)Nc2nnc(CC(=O)NCc3ccccc3)s2)c1	23.9 µM
COc1ccc(NC(=O)CSc2nnc(Cc3cccc4ccccc34)n2C)cc1	> 50 µM (inactive)
COc1ccc(C2CC(c3ccccc3)N(C(=O)C3CC3)c3ncnn32)cc1 (configuration not stated)	> 50 µM (inactive)
c1coc(CNc2nc3ccccc3n3nnnc23)c1	> 50 µM (inactive)
CCN(CC)c1nc(F)c2c(c1F)S(=O)(=O)CCN2Cc1cccnc1	> 50 µM (inactive)
CC(=O)Nc1ccc(Cc2nc(-c3ccc4c(c3)nc(C)c(=O)n4C3CCCC3)no2)cc1	> 50 µM (inactive)
COc1ccc(CNC(=O)CN2C(=O)C(C)=C(c3ccc(C)cc3)S2(=O)=O)cc1	> 50 µM (inactive)
Cc1c(Cl)cccc1NC(=O)Cn1c(=O)c2ccccc2n2nncc12	> 50 µM (inactive)
COc1ccc(NC(=O)c2nc3n(n2)-c2ccccc2S(=O)(=O)N3)cn1	> 50 µM (inactive)
Cc1nn(-c2ccccc2)c(C)c1C(=O)OCC(=O)Nc1cccc(C#N)c1	> 50 µM (inactive)
